Measured values reported in PubChem BioAssay (NCI).
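Step 1: Grow cells in 96-well plates. Step 2: Expose to compound for 48 hours at 5 concentrations. Step 3: Interpolate endpoints linearly; if unreached, use highest concentration. The concentration for full growth arrest is given as TGI.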

Legend:
Experiment in all cases: DTP human tumour cell line panel, 48 h
IGROV1 ovarian = tested on: IGROV1 ovarian
OVCAR-8 ovarian = tested on: OVCAR-8 ovarian
SF-295 CNS = tested on: SF-295 CNS
COLO 205 colon = tested on: COLO 205 colon
SK-MEL-2 melanoma = tested on: SK-MEL-2 melanoma
K-562 leukemia = tested on: K-562 leukemia
HT29 colon = tested on: HT29 colon
HS 578T breast = tested on: HS 578T breast
NCI/ADR-RES ovarian = tested on: NCI/ADR-RES ovarian
ACHN renal = tested on: ACHN renal
KM12 colon = tested on: KM12 colon
UACC-257 melanoma = tested on: UACC-257 melanoma
NCI-H460 lung = tested on: NCI-H460 lung
A498 renal = tested on: A498 renal
PC-3 prostate = tested on: PC-3 prostate
OVCAR-5 ovarian = tested on: OVCAR-5 ovarian
EKVX NSCLC = tested on: EKVX NSCLC
HCT-15 colon = tested on: HCT-15 colon
SK-MEL-28 melanoma = tested on: SK-MEL-28 melanoma
LOX IMVI melanoma = tested on: LOX IMVI melanoma
786-0 renal = tested on: 786-0 renal
SF-539 CNS = tested on: SF-539 CNS
M14 melanoma = tested on: M14 melanoma
SK-MEL-5 melanoma = tested on: SK-MEL-5 melanoma
HL-60(TB) leukemia = tested on: HL-60(TB) leukemia
T-47D breast = tested on: T-47D breast
SN12C renal = tested on: SN12C renal
UO-31 renal = tested on: UO-31 renal
A549 NSCLC = tested on: A549 NSCLC
NCI-H226 lung = tested on: NCI-H226 lung
OVCAR-4 ovarian = tested on: OVCAR-4 ovarian
RPMI-8226 leukemia = tested on: RPMI-8226 leukemia
SF-268 CNS = tested on: SF-268 CNS
TK-10 renal = tested on: TK-10 renal
SNB-19 CNS = tested on: SNB-19 CNS
DU-145 prostate = tested on: DU-145 prostate
NCI-H522 lung = tested on: NCI-H522 lung
MDA-MB-231 breast = tested on: MDA-MB-231 breast
BT-549 breast = tested on: BT-549 breast
CCRF-CEM leukemia = tested on: CCRF-CEM leukemia
NCI-H23 lung = tested on: NCI-H23 lung
OVCAR-3 ovarian = tested on: OVCAR-3 ovarian
MDA-MB-435 = tested on: MDA-MB-435
HOP-92 NSCLC = tested on: HOP-92 NSCLC
UACC-62 melanoma = tested on: UACC-62 melanoma
MCF7 breast = tested on: MCF7 breast
MOLT-4 leukemia = tested on: MOLT-4 leukemia
HCC-2998 colon = tested on: HCC-2998 colon
SK-OV-3 ovarian = tested on: SK-OV-3 ovarian
MDA-N = tested on: MDA-N
MALME-3M melanoma = tested on: MALME-3M melanoma
U251 CNS = tested on: U251 CNS
SNB-75 CNS = tested on: SNB-75 CNS
HCT-116 colon = tested on: HCT-116 colon
SW-620 colon = tested on: SW-620 colon
CAKI-1 renal = tested on: CAKI-1 renal
HOP-62 NSCLC = tested on: HOP-62 NSCLC
RXF 393 renal = tested on: RXF 393 renal
SR leukemia = tested on: SR leukemia

C=C1C(NC)CCC23CC24CCC2(C)C(C(C)=O)C(O)CC2(C)C4CCC13 (stereo not given)
TGI (IGROV1 ovarian): > 100 µM | TGI (OVCAR-8 ovarian): > 100 µM | TGI (SF-295 CNS): 82.5 µM | TGI (COLO 205 colon): > 100 µM | TGI (SK-MEL-2 melanoma): > 100 µM | TGI (K-562 leukemia): > 100 µM | TGI (HT29 colon): > 100 µM | TGI (HS 578T breast): > 100 µM | TGI (NCI/ADR-RES ovarian): > 100 µM | TGI (ACHN renal): > 100 µM | TGI (KM12 colon): > 100 µM | TGI (UACC-257 melanoma): > 100 µM | TGI (NCI-H460 lung): > 100 µM | TGI (A498 renal): > 100 µM | TGI (PC-3 prostate): > 100 µM | TGI (OVCAR-5 ovarian): > 100 µM | TGI (EKVX NSCLC): > 100 µM | TGI (HCT-15 colon): > 100 µM | TGI (SK-MEL-28 melanoma): > 100 µM | TGI (LOX IMVI melanoma): > 100 µM | TGI (786-0 renal): > 100 µM | TGI (SF-539 CNS): > 100 µM | TGI (M14 melanoma): > 100 µM | TGI (SK-MEL-5 melanoma): > 100 µM | TGI (HL-60(TB) leukemia): > 100 µM | TGI (T-47D breast): > 100 µM | TGI (SN12C renal): > 100 µM | TGI (UO-31 renal): > 100 µM | TGI (A549 NSCLC): > 100 µM | TGI (NCI-H226 lung): > 100 µM | TGI (OVCAR-4 ovarian): > 100 µM | TGI (RPMI-8226 leukemia): > 100 µM | TGI (SF-268 CNS): > 100 µM | TGI (TK-10 renal): > 100 µM | TGI (SNB-19 CNS): > 100 µM | TGI (DU-145 prostate): > 100 µM | TGI (NCI-H522 lung): > 100 µM | TGI (MDA-MB-231 breast): > 100 µM | TGI (BT-549 breast): > 100 µM | TGI (CCRF-CEM leukemia): > 100 µM | TGI (NCI-H23 lung): > 100 µM | TGI (OVCAR-3 ovarian): > 100 µM | TGI (MDA-MB-435): > 100 µM | TGI (HOP-92 NSCLC): > 100 µM | TGI (UACC-62 melanoma): > 100 µM | TGI (MCF7 breast): > 100 µM | TGI (MOLT-4 leukemia): > 100 µM | TGI (HCC-2998 colon): > 100 µM | TGI (SK-OV-3 ovarian): > 100 µM | TGI (MDA-N): > 100 µM | TGI (MALME-3M melanoma): > 100 µM | TGI (U251 CNS): > 100 µM | TGI (SNB-75 CNS): > 100 µM | TGI (HCT-116 colon): > 100 µM | TGI (SW-620 colon): > 100 µM | TGI (CAKI-1 renal): > 100 µM

CCN(CC)CCCNc1[nH]ncc2cc3c(nc4ccccc43)c(C)c12
TGI (IGROV1 ovarian): 15.7 µM | TGI (OVCAR-8 ovarian): 24.5 µM | TGI (SF-295 CNS): 32.2 µM | TGI (COLO 205 colon): 23.4 µM | TGI (SK-MEL-2 melanoma): > 100 µM | TGI (K-562 leukemia): > 100 µM | TGI (HT29 colon): 15.8 µM | TGI (HS 578T breast): 29.2 µM | TGI (NCI/ADR-RES ovarian): > 100 µM | TGI (ACHN renal): 21.9 µM | TGI (KM12 colon): 18.5 µM | TGI (UACC-257 melanoma): 29.5 µM | TGI (NCI-H460 lung): 18.1 µM | TGI (HOP-62 NSCLC): 42.2 µM | TGI (A498 renal): 28.7 µM | TGI (PC-3 prostate): 25.5 µM | TGI (OVCAR-5 ovarian): 50.4 µM | TGI (EKVX NSCLC): 23.5 µM | TGI (HCT-15 colon): 30 µM | TGI (SK-MEL-28 melanoma): 32.5 µM | TGI (LOX IMVI melanoma): 20.6 µM | TGI (786-0 renal): 17.3 µM | TGI (SF-539 CNS): 34.1 µM | TGI (M14 melanoma): 52.3 µM | TGI (SK-MEL-5 melanoma): 38 µM | TGI (HL-60(TB) leukemia): 27.1 µM | TGI (T-47D breast): 29.4 µM | TGI (SN12C renal): 19.9 µM | TGI (UO-31 renal): 24.5 µM | TGI (A549 NSCLC): 26.7 µM | TGI (NCI-H226 lung): 25.3 µM | TGI (RPMI-8226 leukemia): 31.3 µM | TGI (SF-268 CNS): 20.6 µM | TGI (TK-10 renal): 36.2 µM | TGI (SNB-19 CNS): 27.5 µM | TGI (DU-145 prostate): 24.3 µM | TGI (NCI-H522 lung): 16.3 µM | TGI (MDA-MB-231 breast): 19.4 µM | TGI (BT-549 breast): 32.7 µM | TGI (CCRF-CEM leukemia): 21.3 µM | TGI (NCI-H23 lung): 28 µM | TGI (OVCAR-3 ovarian): 28.6 µM | TGI (MDA-MB-435): 36.1 µM | TGI (UACC-62 melanoma): 29.4 µM | TGI (MCF7 breast): 38.4 µM | TGI (MOLT-4 leukemia): 5.43 µM | TGI (HCC-2998 colon): 23.2 µM | TGI (SK-OV-3 ovarian): 34.3 µM | TGI (MDA-N): 30.8 µM | TGI (MALME-3M melanoma): 31.4 µM | TGI (U251 CNS): 24.4 µM | TGI (SNB-75 CNS): 26.4 µM | TGI (HCT-116 colon): 17.4 µM | TGI (SW-620 colon): 17.4 µM | TGI (CAKI-1 renal): > 100 µM

C=CCOC(=O)C[C@H](NC(=O)[C@H](Cc1ccc(O)cc1)NCC(F)(F)F)C(=O)OCC=C
TGI (IGROV1 ovarian): > 100 µM | TGI (OVCAR-8 ovarian): > 100 µM | TGI (SF-295 CNS): > 100 µM | TGI (COLO 205 colon): > 100 µM | TGI (SK-MEL-2 melanoma): 46.1 µM | TGI (K-562 leukemia): > 100 µM | TGI (HT29 colon): > 100 µM | TGI (HS 578T breast): > 100 µM | TGI (NCI/ADR-RES ovarian): > 100 µM | TGI (ACHN renal): > 100 µM | TGI (KM12 colon): > 100 µM | TGI (RXF 393 renal): > 100 µM | TGI (UACC-257 melanoma): 44.2 µM | TGI (NCI-H460 lung): > 100 µM | TGI (HOP-62 NSCLC): > 100 µM | TGI (PC-3 prostate): > 100 µM | TGI (OVCAR-5 ovarian): > 100 µM | TGI (EKVX NSCLC): > 100 µM | TGI (HCT-15 colon): > 100 µM | TGI (SK-MEL-28 melanoma): 44.5 µM | TGI (LOX IMVI melanoma): > 100 µM | TGI (786-0 renal): > 100 µM | TGI (SF-539 CNS): > 100 µM | TGI (M14 melanoma): > 100 µM | TGI (SK-MEL-5 melanoma): 97.5 µM | TGI (T-47D breast): 58.1 µM | TGI (SN12C renal): > 100 µM | TGI (UO-31 renal): > 100 µM | TGI (A549 NSCLC): > 100 µM | TGI (NCI-H226 lung): > 100 µM | TGI (OVCAR-4 ovarian): > 100 µM | TGI (RPMI-8226 leukemia): > 100 µM | TGI (SF-268 CNS): > 100 µM | TGI (TK-10 renal): > 100 µM | TGI (SNB-19 CNS): > 100 µM | TGI (NCI-H522 lung): 68.9 µM | TGI (MDA-MB-231 breast): > 100 µM | TGI (BT-549 breast): > 100 µM | TGI (NCI-H23 lung): > 100 µM | TGI (SR leukemia): > 100 µM | TGI (MDA-MB-435): > 100 µM | TGI (HOP-92 NSCLC): > 100 µM | TGI (UACC-62 melanoma): > 100 µM | TGI (MCF7 breast): > 100 µM | TGI (MOLT-4 leukemia): 60.1 µM | TGI (HCC-2998 colon): > 100 µM | TGI (SK-OV-3 ovarian): > 100 µM | TGI (MDA-N): > 100 µM | TGI (MALME-3M melanoma): 52.7 µM | TGI (U251 CNS): > 100 µM | TGI (SNB-75 CNS): > 100 µM | TGI (HCT-116 colon): > 100 µM | TGI (SW-620 colon): > 100 µM | TGI (CAKI-1 renal): > 100 µM
